Results taken from patent publication US10865390B2, “Alcohol dehydrogenase mutant and application thereof in synthesis of diaryl chiral alcohols” (Jiangnan University, priority 2018, dated 2020).

What was measured:
Type in all cases: biochemical
Conditions in all cases: NADPH, pH 7.0, 30° C.
[1] = molecular target: T1, alcohol dehydrogenase KpADH, wild type, SEQ ID No. 2 (Vanderwaltozyma polyspora, UniProt A7TM80); test: Kinetic analysis of KpADH wild type with CPMK
T1 sequence (A7TM80 1-342): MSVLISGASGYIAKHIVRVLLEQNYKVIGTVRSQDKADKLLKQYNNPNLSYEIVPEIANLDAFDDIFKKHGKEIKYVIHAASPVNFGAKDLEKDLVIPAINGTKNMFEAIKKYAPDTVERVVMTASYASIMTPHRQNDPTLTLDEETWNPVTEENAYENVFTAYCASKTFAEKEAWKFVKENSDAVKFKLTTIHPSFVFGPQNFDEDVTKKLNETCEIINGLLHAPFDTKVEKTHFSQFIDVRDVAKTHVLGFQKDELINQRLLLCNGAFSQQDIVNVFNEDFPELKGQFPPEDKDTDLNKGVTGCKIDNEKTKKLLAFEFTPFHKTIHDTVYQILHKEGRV
Description: (§1) Adopting a total reaction system of 200 μL including: 1.0 mM NADPH, 1.0 mM substrate CPMK and sodium phosphate buffer (PBS, 100 mM, pH 7.0), fully and evenly mixing, maintaining at 30° C. for 2 min, adding an appropriate amount of enzyme solution, and detecting the change in light absorption at 340 nm.
(§2) The enzyme activity was calculated by the following formula: Enzyme activity (U)=EW×V×10^3/(6220×1);
(§3) in the formula, EW is the change in absorbance at 340 nm in 1 min; V is the volume of a reaction solution in mL; 6220 is the molar extinction coefficient of NADPH in L/(mol·cm); and 1 is the optical path distance in cm. One activity unit (U) corresponds to the amount of enzyme required to catalyze the oxidation of 1 μmol NADPH per minute under the above conditions.
A column used for purification was a nickel affinity column HisTrap FF crude, and purification was achieved through affinity chromatography using a histidine tag on recombinant protein. The nickel column was equilibrated with a solution A first, a crude enzyme solution was loaded, a penetrating peak was further eluted off using the solution A, and after equilibrium, a solution B (20 mM sodium phosphate, 500 mM NaCl, and 1000 mM imidazole, pH 7.4) was used for gradient elution to elute off the recombinant protein bound to the nickel column, so as to obtain the recombinant alcohol dehydrogenase mutant. The purified protein was subjected to activity measurement (CPMK as substrate, and NADPH as coenzyme) and SDS-PAGE analysis. […] The purified alcohol dehydrogenase protein was then replaced into a Tris-HCl (100 mM, pH 7.0) buffer using a Hi Trap Desalting column (GE Healthcare).
(§4) The activity of KpADH at different substrate concentrations and coenzyme concentrations was determined, and a double reciprocal curve was made based on the reciprocal of activity and substrate concentration to calculate kinetic parameters.

[2] = molecular target: T2, alcohol dehydrogenase KpADH mutant M5 (E214G/S237C/Q136N/S196G of SEQ ID No. 2) (Vanderwaltozyma polyspora, UniProt A7TM80, E214G/Q136N/S196G/S237C); test: Kinetic analysis of KpADH mutant M5 with CPMK
T2 construct: mutant M5
Description: In an embodiment of the present disclosure, the mutant includes the substitution of glycine for glutamic acid at position 214 of the amino acid sequence shown in SEQ ID No. 2, the substitution of cysteine for serine at position 237, the substitution of asparaginate for glutamine at position 136, and the substitution of glycine for serine at position 196, which is named M5.
as §1, §2
as §3, with “conditions. […]” for “conditions.”
as §4

[3] = molecular target: T3, alcohol dehydrogenase KpADH mutant M7 (E214V/T215S of SEQ ID No. 2) (Vanderwaltozyma polyspora, UniProt A7TM80, E214V/T215S); test: Kinetic analysis of KpADH mutant M7 with CPMK
T3 construct: mutant M7
Description: In an embodiment of the present disclosure, the mutant includes the substitution of valine for glutamic acid at position 214 of the amino acid sequence shown in SEQ ID No. 2, and the substitution of serine for threonine at position 215, which is named M7.
as §1, §2
as §3, with “conditions. […]” for “conditions.”
as §4

[4] = molecular target: T4, alcohol dehydrogenase KpADH mutant M8 (Q136N/F161V of SEQ ID No. 1) (Vanderwaltozyma polyspora, UniProt A7TM80, F161V/Q136N); test: Kinetic analysis of KpADH mutant M8 (control example) with CPMK
T4 construct: control mutant M8
Description: In an embodiment of the present disclosure, the mutant includes the substitution of asparaginate for glutamine at position 136 of alcohol dehydrogenase with an amino acid sequence shown in SEQ ID No. 1, and the substitution of valine for phenylalanine at position 161, which is named M8.
as §1, §2
as §3, with “conditions. […]” for “conditions.”
as §4

[5] = molecular target: T5, alcohol dehydrogenase KpADH mutant M9 (S196G/S237C of SEQ ID No. 1) (Vanderwaltozyma polyspora, UniProt A7TM80, S196G/S237C); test: Kinetic analysis of KpADH mutant M9 (control example) with CPMK
T5 construct: control mutant M9
Description: In an embodiment of the present disclosure, the mutant includes the substitution of glycine for serine at position 196 of the alcohol dehydrogenase with the amino acid sequence shown in SEQ ID No. 1, and the substitution of cysteine for serine at position 237, which is named M9.
as §1, §2
as §3, with “conditions. […]” for “conditions.”
as §4

## O=C(c1ccc(Cl)cc1)c1ccccn1 [CPMK, (4-chlorophenyl)-(pyridin-2-yl)-methanone]
[1]
  Kcat: 11.8 s⁻¹
  Km: 410 µM
  Vmax: 17.9 µmol/min/mg
[2]
  Kcat: 17.0 s⁻¹
  Vmax: 21.3 µmol/min/mg
[3]
  Kcat: 14.2 s⁻¹
  Vmax: 21.3 µmol/min/mg
[4]
  Kcat: 14.8 s⁻¹
  Vmax: 22.3 µmol/min/mg
[5]
  Kcat: 17.6 s⁻¹
  Vmax: 26.5 µmol/min/mg
